Data from the supplement of paper PMC12613149.
Counter-ions that a name gives are not always drawn.

How the values were obtained:
[1] = reversed-phase LC retention time (C18, 15 min MeOH gradient); higher = more hydrophobic / later elution
Protocol: (§1)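 Reference mixture of environmental contaminants analysed by RP-LC (BEH C18, 50 °C; ESI+ with water/MeOH plus formic acid and ammonium formate, ESI- with ammonium bicarbonate) coupled to a timsTOF Pro 2 with trapped ion mobility in nitrogen (ramp/accumulation 100 ms). CCS was calibrated with Agilent tune mix (CCS compendium) and averaged over five injections at 0.5-500 ng/mL. The table reports the lowest-CCS (putative monomer) peak; retention times are on the same gradient.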

[2] = collision cross section (TIMS, N2 drift gas) of the primary ion; higher = larger gas-phase ion size
Protocol: as §1

[3] = ionization mode: ESI+, ion species: [M+H]+
[4] = ionization mode: ESI-, ion species: [M-H]-
[5] = ionization mode: ESI+, ion species: [M]+

SMILES | reversed-phase LC retention time [1, 3] [min] | collision cross section [2, 3] [Å²] | reversed-phase LC retention time [1, 4] [min] | collision cross section [2, 4] [Å²] | reversed-phase LC retention time [1, 5] [min] | collision cross section [2, 5] [Å²]
CNCCCN1c2ccccc2CCc2ccccc21 [Desipramine] | 12.9 | 164.14 | – | – | – | –
Cn1cnc2c1c(=O)n(CCCC(=O)O)c(=O)n2C [1-(3-carboxypropyl)-3,7-dimethylxanthine] | 8.35 | 154.67 | – | – | – | –
COc1cc(C2c3cc4c(cc3C(OC3OC5COC(C)OC5C(O)C3O)C3COC(=O)C23)OCO4)cc(OC)c1O (configuration not stated) [Etoposide_1] | – | – | 11.9 | 222.47 | – | –
NS(=O)(=O)c1cc2c(cc1Cl)NCNS2(=O)=O [Hydrochlorothiazide] | – | – | 4.93 | 152.66 | – | –
CN1C(=O)CN=C(c2ccccc2)c2cc(Cl)ccc21 [Diazepam] | 14.2 | 165.95 | – | – | – | –
CC(=O)Nc1c(I)c(NC(C)=O)c(I)c(C(=O)O)c1I [Diatrizoate] | 4.56 | 179.28 | – | – | – | –
COP(=O)(OC)OC=C(Cl)Cl [Dichlorvos] | 9.07 | 139.26 | – | – | – | –
O=c1c(O[C@@H]2O[C@H](CO)[C@H](O)[C@H](O)[C@H]2O)c(-c2ccc(O)c(O)c2)oc2cc(O)cc(O)c12 [Hyperin] | – | – | 7.66 | 201.31 | – | –
O=C(NC1CCCCC1)NC1CCCCC1 [Dicyclohexylurea] | 13.9 | 160.65 | 14.3 | 163.68 | – | –
CCCSc1ccc2[nH]c(NC(=O)OC)nc2c1 [Albendazole] | 13.1 | 165.21 | 14.2 | 165.62 | – | –
O=P(O)(OCCC(F)(F)C(F)(F)C(F)(F)C(F)(F)C(F)(F)C(F)(F)F)OCCC(F)(F)C(F)(F)C(F)(F)C(F)(F)C(F)(F)C(F)(F)F [6:2 Fluorotelomer phosphate diester] | – | – | 17.6 | 232.73 | – | –
CSC1=N[C@@](C)(c2ccccc2)C(=O)N1Nc1ccccc1 [Fenamidone] | 14.1 | 173.13 | – | – | – | –
O=C(Nc1ccccc1)Nc1ccccc1 [1,3-Diphenylurea] | 12.4 | 148.26 | – | – | – | –
CCCCCCCCCCCC(=O)NCCO [N-Lauroylethanolamine] | 16.4 | 175.51 | – | – | – | –
Nc1nc2c(ncn2COCCO)c(=O)[nH]1 [Acyclovir] | 3.16 | 148.26 | 3.13 | 146.78 | – | –
COP(=O)(OC)OC [Trimethylphosphate] | 6.15 | 116.51 | – | – | – | –
CC(C)(C#N)c1cc(Cn2cncn2)cc(C(C)(C)C#N)c1 [Anastrozole] | 11.3 | 185.09 | – | – | – | –
Cc1ccc(O)c(-n2nc3ccccc3n2)c1 [Drometrizole] | 16.7 | 148.63 | 17.1 | 154.28 | – | –
O=P(O)(O)C(F)(F)C(F)(F)C(F)(F)C(F)(F)C(F)(F)C(F)(F)F [Perfluorohexyl phosphonic acid] | – | – | 10.5 | 152.3 | – | –
COc1ccc2c(c1)[C@]13CCCC[C@@H]1[C@H](C2)N(C)CC3 [Dextromethorphan] | 11.4 | 166.66 | – | – | – | –
CCCCCCCCCCCC[N+](C)(C)[O-] [N,N-Dimethyldodecylamine N-oxide] | 15.6 | 175.77 | – | – | – | –
CCCCCCCCCCCCCC(=O)NCCC[N+](C)(C)CCCS(=O)(=O)O [Amidosulfobetaine-14] | – | – | – | – | 16.9 | 217.87
CC(=O)OCC(=O)[C@@]1(O)CC[C@H]2[C@@H]3CCC4=CC(=O)CC[C@]4(C)[C@H]3[C@@H](O)C[C@@]21C [Hydrocortisonacetate] | – | – | 13.7 | 198.1 | – | –
CCc1cc(Cc2cc(CC)cc(C(C)(C)C)c2O)c(O)c(C(C)(C)C)c1 [2,2'-Methylenebis(4-ethyl-6-t-butylphenol)] | – | – | 19.3 | 204.77 | – | –
CCC(=O)OCC(=O)C1(OC(=O)CC)C(C)CC2C3CCC4=CC(=O)C=CC4(C)C3(F)C(O)CC21C (configuration not stated) [Betamethasone dipropionate] | 15.7 | 220.81 | 16.2 | 216.67 | – | –
CCCCOC(=O)CC(O)(CC(=O)OCCCC)C(=O)OCCCC [Tri-n-butyl citrate] | 16.5 | 203.87 | – | – | – | –
CCN(CCC#N)c1ccc(N=Nc2c(Br)cc([N+](=O)[O-])cc2Br)cc1 [Disperse Orange 61] | 16.8 | 202.21 | – | – | – | –
CCCOP(=O)(OCCC)OCCC [Tripropyl phosphate] | 14.2 | 149 | – | – | – | –

SMILES | reversed-phase LC retention time [1, 3] [min] | collision cross section [2, 3] [Å²] | reversed-phase LC retention time [1, 4] [min] | collision cross section [2, 4] [Å²] | reversed-phase LC retention time [1, 5] [min] | collision cross section [2, 5] [Å²]
Oc1cc(Cl)c(Cl)c(Cl)c1 [3,4,5-Trichlorophenol] | – | – | 14.7 | 126.86 | – | –
CCNc1nc(Cl)nc(NCC)n1 [Simazine] | 11.5 | 142.98 | – | – | – | –
O=c1oc2cc(O)ccc2c2oc3cc(O)ccc3c12 [Coumestrol] | 12.5 | 156.86 | 11.7 | 156.09 | – | –
NC(=O)/N=C1\SCCN1Cc1ccc(Cl)nc1 [Thiacloprid amide] | 8.75 | 159.22 | – | – | – | –
CCCCCCCCCCCC(=O)NCC(C)O (configuration not stated) [Lauric isopropanolamide] | 16.6 | 178.97 | – | – | – | –
CN1C(=O)C(O)N=C(c2ccccc2)c2cc(Cl)ccc21 (configuration not stated) [Temazepam] | 13.4 | 167.53 | – | – | – | –
CC[C@H]1CCC[C@H](O[C@H]2CC[C@H](N(C)C)[C@@H](C)O2)[C@@H](C)C(=O)C2=C[C@@H]3[C@@H](C=C[C@@H]4C[C@@H](O[C@@H]5O[C@@H](C)[C@H](OC)[C@@H](OC)[C@H]5OC)C[C@@H]34)[C@@H]2CC(=O)O1 [Spinosyn A] | 15.9 | 267.49 | – | – | – | –
CC(=O)N(CC(O)CO)c1c(I)c(C(=O)NCC(O)CO)c(I)c(C(=O)NCC(O)CO)c1I (configuration not stated) [Iohexol] | 5.4 | 226.32 | 5.47 | 220.12 | – | –
Oc1ccc2c(c1)[nH]c1ccccc12 [2-Hydroxycarbazole] | – | – | 12.4 | 138.96 | – | –
CC[C@H](C)[C@H]1O[C@]2(CC[C@@H]1C)C[C@@H]1C[C@@H](C/C=C(\C)[C@@H](O[C@H]3C[C@H](OC)[C@@H](O[C@H]4C[C@H](OC)[C@@H](O)[C@H](C)O4)[C@H](C)O3)[C@@H](C)/C=C/C=C3\CO[C@@H]4[C@H](O)C(C)=C[C@@H](C(=O)O1)[C@]34O)O2 [Ivermectin B1a] | – | – | 19.5 | 292.22 | – | –
CC(C)Oc1cc(-n2nc(C(C)(C)C)oc2=O)c(Cl)cc1Cl [Oxadiazone] | 16.9 | 182.66 | – | – | – | –
CC1(C)[C@@H](O[C@H]2O[C@H](C(=O)O)[C@@H](O)[C@H](O)[C@H]2O[C@@H]2O[C@H](C(=O)O)[C@@H](O)[C@H](O)[C@H]2O)CC[C@]2(C)[C@H]3C(=O)C=C4[C@@H]5C[C@@](C)(C(=O)O)CC[C@]5(C)CC[C@@]4(C)[C@]3(C)CC[C@@H]12 [Glycyrrhizic acid] | – | – | 11.8 | 282.7 | – | –
CCOCN(C(=O)CCl)c1c(C)cccc1CC [Acetochlor] | 15 | 158.08 | – | – | – | –
CC(C)C1C2CCC1c1c(NC(=O)c3cn(C)nc3C(F)F)cccc12 (configuration not stated) [Isopyrazam] | 16.2 | 185.35 | 16.6 | 191.1 | – | –
CCOc1nc2cccc(C(=O)O)c2n1Cc1ccc(-c2ccccc2-c2nnn[nH]2)cc1 [Candesartan] | 13.3 | 196.78 | 9.52 | 202.36 | – | –
N#Cc1c[nH]cc1-c1cccc2c1OC(F)(F)O2 [Fludioxonil] | – | – | 14.4 | 145.03 | – | –
CNC(=O)c1cc(Oc2ccc(NC(=O)Nc3ccc(Cl)c(C(F)(F)F)c3)cc2)ccn1 | 15.8 | 214.28 | 16.2 | 218.21 | – | –
O=C(O)C(F)(F)C(F)(F)C(F)(F)C(F)(F)F [Perfluoropentanoic acid] | – | – | 10.9 | 129.75 | – | –
COc1cc2ccc(=O)oc2c(O)c1OC [Fraxidin] | 9.58 | 143.3 | 8.57 | 145.19 | – | –
CCCCCCCCCCCCNC [N-Methyldodecylamine] | 15.5 | 167.22 | – | – | – | –
CC(C)C(=O)OCC(C)(C)C(OC(=O)C(C)C)C(C)C (configuration not stated) [2,2,4-Trimethyl-1,3-pentanediol diisobutyrate] | 17 | 172.79 | – | – | – | –
Cn1sc(Cl)cc1=O [Methylchloroisothiazolinone] | 7.46 | 120.77 | – | – | – | –
O=P(OCCCl)(OCCCl)OCCCl [Tris(2-chloroethyl)phosphate] | 11.7 | 150.93 | – | – | – | –
O=C(O)C(F)(F)C(F)(F)C(F)(F)C(F)(F)C(F)(F)C(F)(F)F [Perfluoroheptanoic acid] | – | – | 13.8 | 146.98 | – | –
CC(C)COC(=O)c1ccccc1C(=O)O [Mono-iso-butyl-phthalate] | – | – | 10.2 | 151.15 | – | –
C[C@@H](O)CCCCn1c(=O)c2c(ncn2C)n(C)c1=O [Lisofylline] | 10.3 | 162.42 | – | – | – | –
CC/C(=C(/CC)c1ccc(O)cc1)c1ccc(O)cc1 [Diethylstilbestrol] | – | – | 14.5 | 175.03 | – | –
